Reference: patent US9737511B2, “Method of treating or preventing pathologic effects of acute increases in hyperglycemia and/or acute increases of free fatty acid flux” (Albert Einstein College of Medicine, Inc., priority 2004, dated 2017)

Columns and labels:
[1] = system: bovine aortic endothelial cells; assay: DNA strand breakage, Comet assay; type: cell-based; conditions: 30 mM glucose plus 100 μM compound, 7 days, FIG. 24
Experimental: Bovine aortic endothelial cells (“BAECs”, passage 4-10) were plated in 10 mm cell culture plates until confluent. Cells were incubated with either 5 mM glucose, 30 mM glucose, 30 mM glucose plus 100 μM deferoxamine (DFO), or 30 mM glucose plus 100 μM DMSO, a hydroxyl radical scavenger, for 7 days. Medium with reagents was changed daily. DNA strand breakage was detected using the Comet assay method.
DNA breakage detection was performed using the Comet Assay kit (Trevigen Gaitherburg Md.). Briefly, single cell electrophoresis was performed on the cometslide for 10 min at 1 volt/cm (measured from one electrode to another). After air-drying, the cometslide was stained with SYBR green. Fluorescence was detected using the Olympus IX70 fluorescent microscope and analysis of the fluorescent density of DNA breakage (length of tail) was performed using Image J software.

[2] = system: poly (ADP-ribose)polymerase (PARP); assay: PARP activity by 3H-NAD incorporation in aortic endothelial cells; type: cell-based, bovine; conditions: 30 mM glucose plus 100 μM compound, 6 days, FIG. 25
Experimental: Bovine aortic endothelial cells (“BAECs”, passage 4-10) were plated in 10 mm cell culture plates until confluent. Cells were incubated with either 5 mM glucose, 30 mM glucose, 30 mM glucose plus 100 μM deferoxamine, or 30 mM glucose plus 100 μM DMSO for 6 days and medium changed daily.
The 3H-NAD incorporation method was used to assess PARP activity. BAECs were incubated with buffer which was composed of 56 mM Hepes (pH 7.5), 28 mM KCl, 28 mM NaCl, 2 mM MgCl2, 0.01% digitonin, 25 mM NAD^+, and 1 μCi/ml ^3HNAD^+ for 10 min at 37° C. TCA was added to precipitate ribosylated protein and cells were lysed in 2% NaOH. Detection of incorporated ^3H-NAD was performed using a scintillation counter, and PARP activity determined according to the number of ^3H-NAD dpm.

[3] = system: bovine aortic endothelial cells; assay: Hyperglycemia-induced intracellular reactive oxygen species production (CM-H2DCFDA probe); type: cell-based; conditions: 30 mM glucose plus 250 μM deferoxamine, 72 hrs, FIG. 21 bar 4
Experimental: Cell culture conditions: For ROS measurement, bovine aortic endothelial cells (BAECs, passage 4-10) were plated in 96 well plates at 100,000 cells/well in Eagle's MEM containing 10% FBS, essential and nonessential amino acids, and antibiotics. Cells were incubated with either 5 mM glucose, 30 mM glucose, 30 mM glucose plus 100 micromolar deferoxamine, 30 mM glucose plus 250 micromolar deferoxamine. The deferoxamine was freshly prepared and added to the cells on three consecutive days. The ROS measurements were performed 72 hrs after the initial treatment.
Intracellular reactive oxygen species measurements: The intracellular formation of reactive oxygen species was detected using the fluorescent probe CMH2DCFDA (Molecular Probes). Cells (1×105 ml-1) were loaded with 10iM CM-H2DCFDDA, incubated for 45 min at 37° C., and analyzed in an HTS 7000 Bio Assay Fluorescent Plate Reader (Perkin Elmer) using the HTSoft program. ROS production was determined from an H202 standard curve (10-200 nmol ml-1).

[4] = system: bovine aortic endothelial cells; assay: Free intracellular iron measurement (fura-2 AM); type: cell-based; conditions: 30 mM glucose plus 100 μM deferoxamine, 24 hours, FIG. 23C
Experimental: In order to detect intracellular free iron, cells were loaded with fura-2 AM in the dark at 37° C. for 15 min in 1 ml of TBSS containing 5 μM furs-2 AM. After loading, cells were incubated with TBSS with Iml of 20 μM EDTA for 5 min. (Kress et al., “The Relationship between Intracellular Free Iron and Cell Injury in Cultured Neurons, Astrocytes, and Oligodendrocytes”, J. Neuro., 22(14):5848-5855 (2002), which is hereby incorporated by reference in its entirety). Fluorescence was detected using an Olympus IX70 with 10 X planapo objectives, run by I.P. Lab Spectrum on a Power PC computer. Analysis was performed with I.P.Lab Spectrum.
Bovine aortic endothelial cells (“BAECs”, passage 4-10) were plated in 24 well plates at […] in Eagle's MEM containing 10% FBS, essential and nonessential amino acids, and antibiotics. Cells were incubated with either 5 mM glucose, 30 mM glucose, or 30 mM glucose plus 100 μM deferoxamine. Free intracellular iron measurement was performed 24 hours later. To detect intracellular free iron, cells were loaded with fura-2 AM as described above in Example 12.

prostacyclin synthase [5] = assay: Prostacyclin synthase activity (6-keto-PGF1α immunoassay) in aortic endothelial cells; type: cell-based, bovine; conditions: 30 mM glucose plus 100 μM deferoxamine, 24 hours, FIG. 26 bar 3
Experimental: Bovine aortic endothelial cells (“BAECs”, passage 4-10) were plated in a 24-well plate (50,000 cell/well). Cells were incubated with either 5 mM glucose, 30 mM glucose, or 30 mM glucose plus 100 μM deferoxamine. The prostacyclin synthase product, PGF-1α, was measured 24 hours later.
Prostacyclin synthase activity measured as the concentration of the stable product of prostacyclin synthase, PGF-1a. A competitive immunoassay method (Correlate-EIA) was used for the quantitative determination of 6-keto-PGF1α. Samples (100 μl) collected from BAECs culture medium were added to the assay plate, which was precoated with antibody (6-keto-PGF1α, EIA conjugate solution). PGF1α concentration was calculated according to a standard curve, and data analysis performed using AssayZap software.

prostacyclin synthase [6] = assay: Prostacyclin synthase activity in aortas of diabetic mice; type: in vivo, mouse; conditions: STZ diabetic mice, 10 mg/kg subcutaneously once per day for 7 days, FIG. 27 bar 3
Experimental: (§1) Male C57B16 mice (6-8 weeks old) were made diabetic by daily injections of 50 mg/kg streptozotocin in 0.05 M NaCitrate pH 4.5 after an eight hour fast, for five consecutive days. Two weeks after the initial injection the blood glucose was determined and the diabetic mice were randomized into two groups with equal mean blood glucose levels. Deferoxamine (10 mg/kg) was injected subcutaneously once per day for 7 days in one group of diabetic animals. The aortas were collected. for prostacyclin synthase activity measurement.
Prostacyclin synthase activity measurement A competitive immunoassay method (Correlate-EIA) was used for the quantitative determination of 6-keto-PGF1α. Mouse aortas were washed with PBS and incubated at 37° C. for 3 hours in 400 μl incubation buffer containing 20 mM TRIS buffer (pH 7.5), and 15 μM arachidonic acid. 100 μl of sample was used to measure the PGF 1α.

[7] = system: endothelial nitric oxide synthase (eNOS); assay: eNOS activity (3H-citrulline) in aortic endothelial cells; type: cell-based, bovine; conditions: 30 mM glucose plus 100 μM deferoxamine, 24 hour, FIG. 28 bar 3
Experimental: Bovine aortic endothelial cells (“BAECs”, passage 4-10) were plated in 24-well plate (50,000 cell/well). Cells were incubated with either 5 mM glucose, 30 mM glucose alone, or 30 mM glucose plus 100 μM deferoxamine, for 24 hour. Six hours before eNOS activity determination, media without arginine was added to the cells to deplete endogenous arginine.
Measurement of eNOS activity was accomplished as follows. BAECs were incubated with 400 μl of PBS-^3H-arginine (1.5 μci/ml) buffer for 30 min at 37° C. The reaction was stopped by adding IN TCA (500 μl/well, ice cold ), the cells were freeze fractured in liquid nitrogen for 2 min and thawed at 37° C. for 5 min to obtain the cell lysate. After extraction with ether, the cell lysate was adjusted to pH 5.5 using Hepes buffer containing 2 mM EDTA and 2 mM of EGTA, then loaded onto Trisformed DOWEX 50WX8 ion-exchange columns and ^3H-citrulline collected. Detection of ^3H-citrulline was performed using a liquid scintillation counter, and eNOS activity was calculated from the amount of ^3H-citrulline generated.

[8] = system: endothelial nitric oxide synthase (eNOS); assay: eNOS activity in aortas of diabetic mice; type: in vivo, mouse; conditions: STZ diabetic mice, 10 mg/kg subcutaneously once per day for 7 days, FIG. 29 bar 3
Experimental: as §1, with “initial injection,” for “initial injection”, “were collected” for “were collected.”, “for endothelial nitric oxide” for “for prostacyclin”, “synthase (eNOS)” for “synthase”
Measurement eNOS activity was accomplished as follows. Aortas were collected in liquid-nitrogen and tissue proteins isolated. Immunoprecipitation methods were used to purify the eNOS from tissue lysates. The purified eNOS immuno-complex was incubated with 100 μl of reaction buffer (3 μM Tetrahydrobiopterin, ImM NAPDH, 2.5 mM CaCl2, 200 U Calmodulin, ^3H-L-arginine 0.2 μCi) for 45 min at 37° C. with rolling. After the incubation, samples were loaded onto Tris-formed DOWEX 50WX8 ion-exchange column and ^3H-citrulline was collected. ^3H-citrulline was quantitated using a liquid scintillation counter and eNOS activity was calculated from the amount of ^3H-citrulline generated.

[9] = system: streptozotocin-induced diabetic (STZ) and wild type C57 (WT) mice; assay: Graded ischemia model in dorsal soft tissue (ischemic flap), angiogenic response to ischemia; type: in vivo, mouse; conditions: for EPC mobilization: STZ mice vs untreated STZ mice, day 7 postischemic insult, FIG. 35
Description: Since the vascular anatomy of the mouse dorsum is precisely known, and the major axial vessels can be easily visualized, one can create a reliable zone of ischemia with a reproducible oxygen gradient in the tissue. This has been confirmed with direct tissue oxygen tension measurements utilizing five reference points (p1-p5) spaced 0.5 cm apart proceeding from the least to most ischemic regions. This also allows for the study of discrete microenvironments of ischemia (Areas A, B, C), with Area A being the least ischemic and Area C being the most ischemic portion of the soft tissue. The design of this model facilitates direct dynamic measurement of oxygen tension, quantitation of tissue survival, with a degree of reproducibility that allows correlation of specific oxygen tensions with changes in gene expression.
Researchers have created a novel model of graded ischemia in the dorsal soft tissue of mice. Since the vascular anatomy of the mouse dorsum is precisely known, and the major axial vessels can be easily visualized, this model creates a reliable zone of ischemia with a reproducible oxygen gradient in the tissue. This has been confirmed with direct tissue oxygen tension measurements utilizing four reference points (p1-p4) spaced 0.5 cm apart, proceeding from the least to most ischemic regions.
The effect of deferoxamine, an iron chelator, on ischemic neovascularization in streptozotocin-induced diabetic (STZ) and wild type C57 (WT) mice was examined. Male C57B16 mice (6-8 weeks old) were made diabetic by daily injections of 50 mg/kg streptozotocin in 0.05 M NaCitrate pH 4.5 after an eight hour fast, for five consecutive days. Two weeks after the initial injection the blood glucose was determined, the diabetic mice were randomized into two groups with equal mean blood glucose levels.
The treatment group was pretreated 7 days prior to having an ischemic flap created on their dorsum and throughout the experiment with daily injections of deferoxamine (10 mg/kg) subcutaneously once per day for 7 days in one group of diabetic animals. […]

diabetic mice (db/db) = assay: Diabetic wound healing (wound closure); type: in vivo, mouse; conditions: deferoxamine-treated diabetic mice, FIGS. 33A-B
Description: The effect of reducing the wound healing in diabetic mice (db/db) by treating them with deferoxamine was also studied in the novel model of graded ischemia in the dorsal soft tissue of mice of Example 20. The animals were made diabetics as described in Example 21.

[10] = Migration of diabetic bone marrow derived, lineage depleted cells toward SDF; type: cell-based, mouse; conditions: cells from STZ mice treated with deferoxamine

Compound	hyperglycemia-induced DNA strand breakage [1]	hyperglycemia-induced PARP activation [2]	hyperglycemia-induced increased ROS (superoxide) production [3]	hyperglycemia-induced increase in intracellular free iron [4]	hyperglycemia-induced inhibition of prostacyclin synthase activity (PGF-1α) (prostacyclin synthase [5])	diabetes-induced inhibition of prostacyclin synthase activity in aortas (prostacyclin synthase [6])	hyperglycemia-induced inhibition of eNOS activity [7]	diabetes-induced inhibition of eNOS activity in aortas [8]	EPC mobilization [9]	EPC mobilization ([9]; listed as Deferoxamine)	tissue survival ([9]; STZ mice, 10 mg/kg s.c. daily, FIG. 31B)	blood flow assessed by Doppler ([9]; STZ mice, 10 mg/kg s.c. daily, day 7, FIG. 31A)	post-ischemic neovascularization (CD31 positive blood vessel counts) ([9]; STZ mice, FIG. 32)	bone marrow-derived endothelial precursor cells mobilized in response to ischemia ([9]; deferoxamine-treated diabetic animals, FIGS. 34C-D)	capillary formation in ischemic tissue ([9]; deferoxamine-treated diabetic mice vs untreated, FIG. 34E-F)	oxygenation of ischemic flap by forming new vessels ([9]; deferoxamine-treated diabetic mice, FIGS. 34A-B)	diabetes-induced defect in the normal angiogenic response to ischemia ([9]; diabetic animals treated with deferoxamine)	neovascularization (CD31 positive blood vessel counts) ([9]; wild type mice, FIG. 32)	complete wound closure (diabetic mice (db/db))	migration toward SDF [10]
C[S+](C)[O-] [DMSO]	Inhibit	Inhibit	–	–	–	–	–	–	–	–	–	–	–	–	–	–	–	–	–	–
CC(=O)N(O)CCCCCNC(=O)CCC(=O)N(O)CCCCCNC(=O)CCC(=O)N(O)CCCCCN [deferoxamine]	prevents	prevents	completely prevents	completely prevents	does not inhibit the activity of this important antiatherogenic enzyme at all	does not inhibit the activity of this important antiatherogenic enzyme at all	does not inhibit the activity of this important antiatherogenic enzyme at all	does not inhibit the activity of this important antiatherogenic enzyme at all	improved	restores	restored to normal	restored to normal	restored	1.12%	substantially increase	increase oxygenation	completely prevents	improved neovascularization	16 days	restored to normal
